The test system of one test is CtCGT. Put plainly: HPLC C-glycosylation assay, Michaelis-Menten fit. The format is biochemical, Carthamus tinctorius. The following applies: read-out: apparent Km; saturated UDP-Glc as sugar donor.
In test [1] the target is Ct2OGD1 (2-oxoglutarate-dependent dioxygenase), purified recombinant, NHS-labelled (Carthamus tinctorius). The experiment in a line: MST.

What is called Km is the substrate concentration at which the rate is half of its maximum. For orientation: Kd means the concentration at which binding is half-saturated.

In the case of `O=C(CCc1ccc(O)cc1)c1c(O)cc(O)c([C@@H]2O[C@H](CO)[C@@H](O)[C@H](O)[C@H]2O)c1O` [1a, nothofagin], in the test on CtCGT, the Michaelis constant (Km) turned out to be 284 µM.
On to `O=C(CCc1ccc(O)cc1)c1c(O)cc(O)cc1O` [compound 1, phloretin], for which the Michaelis-Menten constant (Km) in the test on CtCGT is 1.86 µM.
As for “CtCGT (flavonoid di-C-glycosyltransferase, UGT708U8), purified recombinant (enzyme)”, the dissociation constant (Kd) in test [1] came out at 0.541 µM.

(Values after publication PMC12078564 (Nature Communications, 2025).)
